Patent publication US9550732B2, “Salt of pyrrolidin-3-yl acetic acid derivative and crystals thereof” (Eisai R&D Management Co., Ltd., priority 2013, dated 2017)

System: T cell transfer colitis model
Experiment: Amelioration of body weight loss in T cell transfer-induced colitis model
Assay type: in vivo
Conditions: colitis-induced SCID mice injected with CD4-positive CD45RB-high cells; orally once a day from Day 16 to 31; body weight Day 19-31
Procedure: By using colitis-induced SCID mice in which CD4-positive, CD45RB-high cells isolated from BALB/c mice splenocytes were injected, the efficacy of the example compounds was evaluated by the body weight changes. The experiment was performed over 31 days. On Day 1, CD4-positive, CD45RB-high cells isolated from the spleen of BALB/c mice (5×10^5 cells/mouse) were intravenously administered to SCID mice. From Day 16 to 31, the example compound was orally administered to the SCID mice once a day, followed by measuring body weights of all animals on Day 19, 22, 24, 26, 29 and 31. The efficacy was evaluated by body weight changes on Day 19, 22, 24, 26, 29 or 31. The body weight change (%) was determined by the formula shown below, where [A] is the body weight on Day 16, and [B] is the body weight on each day of body weight measurement (Day 19, 22, 24, 26, 29 or 31). body weight change (%)=B/A×100 (2) Results The results are shown in FIG. 6. The abscissa in the figures indicates the number of days elapsed, where the day on which CD4-positive, CD45RB-high cells isolated from the spleen of BALB/c mice (5×10^5 cells/mouse) were intravenously administered to SCID mice is Day 0.

For `C[C@H]1CN(Cc2c(Cl)cccc2C(F)(F)F)C[C@@]1(CC(=O)O)C(=O)NC1CCN(CC2=CCCCC2)CC1` [compound (1), 2-[(3S,4R)-1-{[2-chloro-6-(trifluoromethyl)phenyl]methyl}-3-{[1-(cyclohex-1-en-1-ylmethyl)piperidin-4-yl]carbamoyl}-4-methylpyrrolidin-3-yl]acetic acid], the “effect on body weight change (FIG. 6)” value was “weight reduction-suppressing effect”.
